The source of these data is patent US11230578B2, “Peptides and use of same in the treatment of diseases, disorders or conditions associated with a mutant P53” (Yeda Research and Development Co. Ltd., priority 2016, dated 2022).

For data set [1], the system named is ES2 cells expressing luciferase. Nature of the data set: ES2 ovarian cancer mouse xenograft model, luciferase live imaging. The class given is in vivo, nude mice. As for the experimental part: 2*10^5 ES2 cells expressing luciferase were injected into the hips of nude mice. Bioluminescence was measured. […] The background threshold detection level of the IVIS system was about 5×10^6 photons. […]
Mice (6 weeks Athymic nude) were injected subcutaneously with 2×10^5-10^6 cells into each […]. All the cell lines employed in these experiments stably express a luciferase reporter gene to enable monitoring of tumor growth by live imaging. 4-18 days later, when tumors reached visible size, the mice were randomly divided into several groups: a control group, treated with either a single control peptide, and groups treated with effective peptide, either a single peptide. Peptides were administered either by intratumoral injection of 10 μg peptide per tumor in 40 μl PBS, three times a week or by Alzet mini pumps 0.8 mg for two weeks. Tumor growth over time was measured by live imaging, using the IVIS2000 system. Exposure time was calibrated to 20 seconds. 16 images were taken over 8 minutes and peak luminescence values were taken for each tumor. Experiments were conducted until tumors reached maximal allowed size of 1 cm^3, at which mice were sacrificed and tumors extracted, measured and weighed.

The nature of data set [2]: Pharmacokinetic study, plasma half life. The class given is in vivo. The source says:
FIGS. 4A-D show the pharmacokinetics of various modes of administration.

Data set [3] has as its system ES2 ovarian cancer cells (p53 mutant S241F). The class given is cell-based.
Procedure: Cells were cultured in 96 wells plates with 3000 cells/well. […] Then medium was removed and cell viability was determined by staining the cells with crystal violet (0.05%) in methanol/PBS (1:5, v/v), for 10 min, followed by 3 washes with PBS. 10% acetic acid was added to each well for 10 min. OD was determined at 595 nm.
Cells, ES2 Con expressing endogenous mp53^S241F, and ES2 KO cells in which p53 was stably knocked out using CRISPR/Cas9 (ES2 p53KO), to control for specificity for mutp53 were cultured in 96 wells plates with 3000 cells/well. Indicated peptides were added at a concentration of 8 μg/ml and the plates incubated for additional 48 h at 37° C. Then medium was removed and cell viability was determined by staining the cells with crystal violet (0.05%) in methanol/PBS (1:5, v/v), for 10 min, followed by 3 washes with PBS. 10% acetic acid was added to each well for 10 min. OD was determined at 595 nm.
Cells were cultured in 96 wells plates with 3000 cells/well. Serial dilutions of different peptides were added and the plates incubated for additional 48 h at 37° C. Then the medium was removed and cell viability was determined by staining the cells with crystal violet (0.05%) in methanol/PBS (1:5, v/v), for 10 min, followed by 3 washes with PBS. 10% acetic acid was added to each well for 10 min. OD was determined at 595 nm. Results are normalized to non-treated cells 100% viability.
Cells were cultured in 96 wells plates with 2500-4000 cells/well. Serial dilutions of different peptides were added and the plates incubated for additional 48 h at 37° C. Then medium was removed and cell viability was determined by staining the cells with crystal violet (0.05%) in methanol/PBS (1:5, v/v), for 10 min, followed by 3 washes with PBS. 10% acetic acid was added to each well for 10 min. OD was determined at 595 nm.
ES2 Cells were cultured in 96 wells plates with 3000 cells/well. […] Then medium was removed and cell viability was determined by staining the cells with crystal violet (0.05%) in methanol/PBS (1:5, v/v), for 10 min, followed by 3 washes with PBS. 10% acetic acid was added to each well for 10 min. OD was determined at 595 nm.
Cells, ES2 Con expressing endogenous mp53S241F, and ES2 KO cells in which p53 was stably knocked out using CRISPR/Cas9 (ES2 p53KO), to control for specificity for mutp53 were cultured in 96 wells plates with 3000 cells/well. The indicated peptides were added at a concentration of 8 μg/ml and the plates incubated for additional 48 h at 37° C. Then medium was removed and cell viability was determined by staining the cells with crystal violet (0.05%) in methanol/PBS (1:5, v/v), for 10 min, followed by 3 washes with PBS. 10% acetic acid was added to each well for 10 min. OD was determined at 595 nm.

Where two headings read alike, the source gives them in different places.

With `CCCCCCCCCCCCCC(=O)N[C@@H](CCCNC(=N)N)C(=O)N[C@@H](CCCNC(=N)N)C(=O)N[C@@H](Cc1c[nH]cn1)C(=O)N[C@@H](CO)C(=O)N[C@H](C(=O)N1CCC[C@H]1C(=O)N[C@@H](Cc1c[nH]cn1)C(=O)N1CCC[C@H]1C(=O)N[C@@H](CC(=O)O)C(=O)O)[C@@H](C)O` [pCAP-250], the “effect on tumor development of ES2 cells” value was “significant effect” in data set [1] (intratumoral injections, 0.4 mg/kg 3 times a week) and “significant effect” in data set [1] (subcutaneously by Alzet minipumps, 2.3 mg/kg per day). In addition, the half-life in data set [2] (iv, 1 mg/kg, administered intravenously) is 0.8 to 1.8 h; in data set [2] (sc, administered subcutaneously), 3 to 8 h. In addition, the 50% inhibitory concentration (IC50) in data set [3] (48 h) is 3200 nM; in data set [3] (read-out: IC50 for pCAP-250 in combination with cisplatin, cell viability, ES2 cells, together with 1 μg/ml of cisplatin, 48 h, estimated), 1900 nM. Also, the “viability of the cancer cells in the presence of peptide” value in data set [3] (ES2 cells, FIG. 1) is on record as “reduced significantly”. Further, the “combination effect of pCAP-250 and cisplatin” value in data set [3] (ES2 cells, pCAP-250 dilutions + 1 μg/ml cisplatin, 48 h) is “synergistic effect”.
